Values joined by “and” are separate entries in the source; they are usually repeats but may differ in a detail not shown here. Equal values may be shown once.
Experiments:
[1] = Particle size analysis (Beckman Coulter Counter) after redispersion in water; assay type: physicochemical; conditions: bulk drug powder as received, redispersed in water
Experimental: (§1) • Particle Size Analysis. […] Dissolution obtained using the following method is also referred to herein as “in vitro dissolution”. The dissolution media used varied with the drug substance, and is specified below. The dissolution media was heated to 37° C. and degassed. Dissolution was performed utilizing three vessels per experiment. 11 to 12 mg of drug particles prepared according to the present invention was added to each vessel for dissolution analysis. Dissolution samples were filtered automatically into test tubes containing 0.1 mL of acetonitrile, mixed with a vortex mixer, filtered and analyzed by HPLC. Samples were taken at 2, 5, 10, 15, 20, 30, 60, and 120 minutes. At the 60 min. point the agitation speed was increased to 200 rpm to ensures complete dissolution by 120 minutes. The 120 min. reading is the infinity time reading and the infinity time is used to calculate the potency. […] Crystallinity was determined by X-ray diffraction methods using a Bruker D-8 automated diffractometer. • Atmospheric Freeze Drying (ATMFD). ATMFD was one method of solvent removal used in the following examples. Heat transfer fluid was circulated through the circulating jacket of the heat exchanger, that was used to cool the drying gas then to the jacket of the ATMFD unit. Chilled nitrogen gas is flowed through the bottom of the ATMFD unit to sublime the solvent(s) away from the drug (s) and fluidizing the solids. The ATMFD unit and the nitrogen gas temperature are slowly warmed to ambient temperature. After the ATMFD portion of the process was complete the solid was collected from either the cyclone or the ATMFD Unit. • Freeze Drying. Freeze drying was an alternative solvent removal method used in some of the following examples. The frozen solution that was prepared was transferred to ajar cooled with dry ice. The processed solid in the chilled container was placed on a Virtis freeze dryer and dried for app. 12-24 hr at approximately 100 mtorr vacuum.

[2] = USP Dissolution Apparatus Method 2 (in vitro dissolution); assay type: physicochemical; conditions: 37° C.
Experimental: as §1

[3] = deionized water containing 10.0 wt. % sodium chloride

For NC(=O)N1c2ccccc2C=Cc2ccccc21 [Carbamazepine], the “PSA of bulk drug” value [1] was 391.4 microns and the “Dissolution of bulk drug after 2 minutes” value ([2]; deionized water containing 5.0 wt. % sodium chloride) was 4.83 wt %.
For C#C[C@]1(O)CC[C@H]2[C@@H]3CCC4=Cc5oncc5C[C@]4(C)[C@H]3CC[C@@]21C [Danazol], the “PSA of bulk drug” value [1] was 24.86 microns and the “Dissolution of bulk drug after 2 minutes” value ([2]; deionized water, 0.75 wt. % SLS, 1.21 wt. % Tris, pH 9) was 56.42 wt %.
With CC(=O)OCC(=O)[C@@]1(O)CC[C@H]2[C@@H]3CCC4=CC(=O)CC[C@]4(C)[C@H]3[C@@H](O)C[C@@]21C [Hydrocortisone Acetate] the “PSA of bulk drug” value [1] was 17.07 microns and the “Dissolution of bulk drug after 2 minutes” value ([2]; deionized water containing 0.3 wt. % SDS) was 21.16 wt %.
In the case of CC(=O)N1CCN(c2ccc(OCC3COC(Cn4ccnc4)(c4ccc(Cl)cc4Cl)O3)cc2)CC1 (stereo not shown) [Ketoconazole], the “PSA of bulk drug” value [1] is reported as 13.5 microns and 13.50 microns and the “Dissolution of bulk drug after 2 minutes” value ([2]; deionized water containing 0.5 wt. % SLS) is reported as 26.1 wt % and 26.10 wt %.
In the case of CC(C(=O)O)c1cccc(C(=O)c2ccccc2)c1 (stereo not shown) [Ketoprofen], the “PSA of bulk drug” value [1] is reported as 42.73 microns.
With C[C@]12C=CC(=O)C=C1CC[C@@H]1[C@@H]2C(=O)C[C@@]2(C)[C@H]1CC[C@]2(O)C(=O)CO [Prednisone] the “PSA of bulk drug” value [1] was 3.263 microns and the “Dissolution of bulk drug after 2 minutes” value [2, 3] was 0.97 wt %.
With CC1(C)O[C@@H]2C[C@H]3[C@@H]4CCC5=CC(=O)C=C[C@]5(C)[C@@]4(F)[C@@H](O)C[C@]3(C)[C@]2(C(=O)CO)O1 [Triamcinalone Acetonide] the “PSA of bulk drug” value [1] was 7.707 microns and the “Dissolution of bulk drug after 2 minutes” value [2, 3] was 5.38 wt %.
